This passage reports TGI results from PubChem BioAssay (NCI).

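Tested at 5 concentrations; 48 h exposure; 96-well plates; endpoints linearly interpolated, else capped at highest concentration. TGI is the concentration that stops growth completely.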

Among the test systems are LOX IMVI melanoma; SK-MEL-2 melanoma; U251 CNS; NCI-H460 lung; M14 melanoma; HCT-116 colon; HL-60(TB) leukemia; HCC-2998 colon; K-562 leukemia; SR leukemia; BT-549 breast; DU-145 prostate; CCRF-CEM leukemia; KM12 colon; SF-295 CNS; EKVX NSCLC; SK-MEL-5 melanoma; TK-10 renal; CAKI-1 renal; MDA-MB-435.
Common to all, as to assay: inhibition of tumour cell growth, NCI panel, 48 h

As to `O=[N+]([O-])C(=C(Nc1ccccc1)Nc1ccccc1)/C(Cl)=C(\Cl)Br`, the TGI with LOX IMVI melanoma amounted to 15.2 µM; with SK-MEL-2 melanoma, 38.3 µM; in the test on U251 CNS, 28.2 µM; in the test with NCI-H460 lung it was 54.5 µM; in the test with M14 melanoma, 20.1 µM; with HCT-116 colon it was 20.1 µM. For the same compound, the TGI with HL-60(TB) leukemia was 4.41 µM; in the test with HCC-2998 colon it was 35 µM; with K-562 leukemia, 13.2 µM; with SR leukemia it was 22.6 µM; with BT-549 breast, 60.5 µM; in the test on DU-145 prostate it was 31.1 µM. In addition, the TGI in the test with CCRF-CEM leukemia turned out to be 6.44 µM; in the test with KM12 colon, 26.2 µM; in the test with SF-295 CNS, 29.5 µM; in the test with EKVX NSCLC it was 32.1 µM.

In the case of `CC1(C)CCCOc2cccc(c2)OCCCC(C)(C)C1=O`, the TGI in the test on LOX IMVI melanoma is > 100 µM; with SK-MEL-2 melanoma it was 54.9 µM; in the test with U251 CNS, > 100 µM; in the test on SK-MEL-5 melanoma it was 35.8 µM; in the test with NCI-H460 lung, > 100 µM; in the test on M14 melanoma it was > 100 µM. In addition, the TGI in the test with HCT-116 colon was > 100 µM; in the test with HL-60(TB) leukemia, > 100 µM; in the test with K-562 leukemia, > 100 µM; in the test with SR leukemia, > 100 µM; with BT-549 breast, 89.3 µM; in the test with DU-145 prostate, > 100 µM. For the same compound, the TGI with TK-10 renal was > 100 µM; in the test on CAKI-1 renal it was > 100 µM; in the test on CCRF-CEM leukemia, 44.2 µM; in the test with KM12 colon, > 100 µM; in the test on EKVX NSCLC, > 100 µM; with MDA-MB-435, > 100 µM.

On to `O=C(Cn1c2ccc(Br)cc2c2nc3ccccc3nc21)N/N=C/c1ccccc1`, for which the TGI with SK-MEL-2 melanoma, with U251 CNS, in the test with SK-MEL-5 melanoma, in the test with M14 melanoma, with K-562 leukemia and in the test with SR leukemia was > 100 µM each time. Besides, the TGI is > 100 µM in the test with BT-549 breast; > 100 µM in the test on DU-145 prostate; > 100 µM in the test with TK-10 renal; > 100 µM in the test with CAKI-1 renal; > 100 µM in the test with KM12 colon; 84.8 µM with SF-295 CNS. For the same compound, the TGI in the test on EKVX NSCLC and in the test with MDA-MB-435 was > 100 µM each time.

`CC(=O)N/N=C1/CC[C@@]2(C)C(=CC[C@H]3C4CCC(C(C)CCCC(C)C)[C@@]4(C)CCC32)C1(C)C` (some centres undefined): the TGI in the test on LOX IMVI melanoma, with SK-MEL-2 melanoma, with U251 CNS, in the test on SK-MEL-5 melanoma, in the test on NCI-H460 lung and in the test with M14 melanoma was > 100 µM in each case. The TGI with HCT-116 colon, in the test with HL-60(TB) leukemia, with K-562 leukemia, with SR leukemia, with BT-549 breast and in the test on DU-145 prostate was > 100 µM throughout. Further, the TGI in the test on TK-10 renal, with CAKI-1 renal, in the test on CCRF-CEM leukemia, in the test with KM12 colon, in the test with SF-295 CNS and with EKVX NSCLC was > 100 µM each time. Moreover, the TGI in the test on MDA-MB-435 is > 100 µM.

Turning to `CC(C)(CC#N)c1cc(CC(C)(C)c2cc(CC(C)(C)c3cc(C(C)(C)C4(C)OCCO4)no3)no2)no1`, the TGI in the test on SK-MEL-2 melanoma, in the test with U251 CNS, with SK-MEL-5 melanoma, in the test with M14 melanoma, in the test on HCT-116 colon and with HCC-2998 colon was > 100 µM in each case. The TGI with K-562 leukemia was > 100 µM; with BT-549 breast it was > 100 µM; in the test on DU-145 prostate, > 100 µM; in the test on TK-10 renal, > 100 µM; in the test with CAKI-1 renal, 87.2 µM; in the test on CCRF-CEM leukemia it was > 100 µM. Also, the TGI in the test with KM12 colon, with SF-295 CNS, with EKVX NSCLC and in the test on MDA-MB-435 was > 100 µM in each case.

In the case of `Cc1cc(=O)oc2c3c(ccc12)OC(c1ccc(Br)cc1)CC3=O` (centres undefined), the TGI in the test with LOX IMVI melanoma came to 14.6 µM; in the test on SK-MEL-2 melanoma it was 33.5 µM; in the test with U251 CNS, 18.3 µM; in the test with SK-MEL-5 melanoma it was 24.5 µM; in the test with NCI-H460 lung it was 36.8 µM; with M14 melanoma, 31.6 µM. For the same compound, the TGI was 23.8 µM in the test on HCT-116 colon; 59.2 µM in the test on HCC-2998 colon; 19 µM with K-562 leukemia; > 100 µM with SR leukemia; 11.4 µM with BT-549 breast; 27.1 µM in the test on TK-10 renal. The TGI was 43.8 µM with CAKI-1 renal; 9.11 µM in the test on CCRF-CEM leukemia; 33.1 µM in the test on KM12 colon; 23.9 µM with SF-295 CNS; 31.8 µM in the test on EKVX NSCLC; 16.9 µM with MDA-MB-435.

Consider `O=C1CCCCC(=O)Nc2ccccc2N1`, for which the TGI in the test with LOX IMVI melanoma, in the test with SK-MEL-2 melanoma, in the test with U251 CNS, in the test with SK-MEL-5 melanoma, in the test on NCI-H460 lung and in the test with M14 melanoma was > 100 µM each time. The TGI in the test with HCT-116 colon, with HL-60(TB) leukemia, in the test with K-562 leukemia, in the test with SR leukemia, with BT-549 breast and with DU-145 prostate was > 100 µM in each case. The TGI in the test on TK-10 renal, with CAKI-1 renal, in the test with CCRF-CEM leukemia, in the test with KM12 colon, in the test on SF-295 CNS and with EKVX NSCLC was > 100 µM each time. Moreover, the TGI in the test on MDA-MB-435 is > 100 µM.

Consider `CCCC(=O)OCC1OC(n2cc(F)c(=O)[nH]c2=O)C(F)C1OC(=O)CCC` (centres undefined), for which the TGI in the test on LOX IMVI melanoma, with SK-MEL-2 melanoma, with U251 CNS, with SK-MEL-5 melanoma, in the test with NCI-H460 lung and with M14 melanoma was > 100 µM each time. For the same compound, the TGI in the test with HCT-116 colon, in the test on HL-60(TB) leukemia, with K-562 leukemia, in the test with SR leukemia, with BT-549 breast and in the test with DU-145 prostate was > 100 µM in each case. Besides, the TGI with TK-10 renal, in the test with CAKI-1 renal, in the test on CCRF-CEM leukemia, in the test with KM12 colon, with SF-295 CNS and in the test with EKVX NSCLC was > 100 µM each time. Moreover, in the test on MDA-MB-435, the TGI was > 100 µM.
